According to US20120029187A1, “HALOALKYLSULFONANILIDE DERIVATIVE” (Nissan Chemical Industries, Ltd., priority 2009, published 2012):

What was measured:
Format in all cases: in vivo
ducksalad [1] = test: Test Example 1: herbicidal effects in preemergence treatment under submerged conditions; conditions: dose 2.52 g/a
How it was run: (§1)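 Weed seeds and 2.5-leaf rice seedlings shared each flooded cup of alluvial soil. Dosing, expressed as g per are, was by pouring water-diluted emulsifiable concentrate onto the surface on sowing day. Mortality was graded 0 to 5 after three weeks' growth.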

barnyardgrass [2] = test: as above; conditions: dose 2.52 g/a
How it was run: as §1

bulrush [3] = test: as above; conditions: dose 2.52 g/a
How it was run: as §1

water foxtail [4] = test: Test Example 3: herbicidal effects in soil treatment; conditions: dose 6.3 g/a
How it was run: (§2)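 Seeds were sown in sterilized diluvial soil and covered with about 1.5 cm of soil. Compounds, formulated as emulsifiable concentrates and diluted with water, were sprayed evenly over the soil surface at set doses in g/a. Herbicidal effect was scored on a rating scale three weeks later.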

common lambsquater [5] = test: as above; conditions: dose 6.3 g/a
How it was run: as §2

barnyardgrass [6] = test: as above; conditions: dose 6.3 g/a
How it was run: as §2

Italian ryegrass [7] = test: as above; conditions: dose 6.3 g/a
How it was run: as §2

giant foxtail [8] = test: as above; conditions: dose 6.3 g/a
How it was run: as §2

common ragweed [9] = test: as above; conditions: dose 6.3 g/a
How it was run: as §2

wild oat [10] = test: as above; conditions: dose 6.3 g/a
How it was run: as §2

redroot pigweed [11] = test: as above; conditions: dose 6.3 g/a
How it was run: as §2

large crabgrass [12] = test: as above; conditions: dose 6.3 g/a
How it was run: as §2

transplanted rice = test: Test Example 1: preemergence treatment under submerged conditions, effect on crop; conditions: dose 2.52 g/a
How it was run: as §1

ducksalad [13] = test: Test Example 2: herbicidal effects during the vegetation period under submerged conditions; conditions: treatment during the vegetation period under submerged conditions; dose 2.52 g/a
How it was run: (§3)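 Barnyardgrass, bulrush and ducksalad were co-sown in alluvial soil flooded to 4 cm and grown in a greenhouse at 25 to 30° C. At the 1- or 2-leaf stage, water-diluted emulsifiable concentrates went onto the water surface at set doses (g/a). Herbicidal effect was scored three weeks later on a graded scale.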

barnyardgrass [14] = test: as above; conditions: treatment during the vegetation period under submerged conditions; dose 2.52 g/a
How it was run: as §3

bulrush [15] = test: as above; conditions: treatment during the vegetation period under submerged conditions; dose 2.52 g/a
How it was run: as §3

water foxtail [16] = test: Test Example 4: herbicidal effect in foliage treatment; conditions: dose 6.3 g/a, three weeks after application
How it was run: (§4)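 Seeds sown in sterilized diluvial soil under ~1.5 cm soil cover and grown 14 days in a greenhouse at 25 to 30° C. Emulsifiable concentrates diluted with water were then sprayed uniformly on foliage at predetermined doses (g/a). Herbicidal effect was scored three weeks after application on a graded evaluation scale.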

common lambsquater [17] = test: as above; conditions: dose 6.3 g/a, three weeks after application
How it was run: as §4

barnyardgrass [18] = test: as above; conditions: dose 6.3 g/a, three weeks after application
How it was run: as §4

Italian ryegrass [19] = test: as above; conditions: dose 6.3 g/a, three weeks after application
How it was run: as §4

common chickweed [20] = test: as above; conditions: dose 6.3 g/a, three weeks after application
How it was run: as §4

giant foxtail [21] = test: as above; conditions: dose 6.3 g/a, three weeks after application
How it was run: as §4

beadstraw = test: as above; conditions: dose 6.3 g/a, three weeks after application
How it was run: as §4

common ragweed [22] = test: as above; conditions: dose 6.3 g/a, three weeks after application
How it was run: as §4

wild oat [23] = test: as above; conditions: dose 6.3 g/a, three weeks after application
How it was run: as §4

redroot pigweed [24] = test: as above; conditions: dose 6.3 g/a, three weeks after application
How it was run: as §4

large crabgrass [25] = test: as above; conditions: dose 6.3 g/a, three weeks after application
How it was run: as §4

common chickweed [26] = test: Test Example 3: herbicidal effects in soil treatment; conditions: dose 6.3 g/a
How it was run: as §2

SMILES | C: ducksalad, herbicidal effect (evaluation scale 0-5) (ducksalad [1]) | A: barnyardgrass, herbicidal effect (evaluation scale 0-5) (barnyardgrass [2]) | B: bulrush, herbicidal effect (evaluation scale 0-5) (bulrush [3]) | G: water foxtail, herbicidal effect (evaluation scale 0-5) (water foxtail [4]) | L: common lambsquater, herbicidal effect (evaluation scale 0-5) (common lambsquater [5]) | A: barnyardgrass, herbicidal effect (evaluation scale 0-5) (barnyardgrass [6]) | H: Italian ryegrass, herbicidal effect (evaluation scale 0-5) (Italian ryegrass [7]) | E: giant foxtail, herbicidal effect (evaluation scale 0-5) (giant foxtail [8]) | J: common ragweed, herbicidal effect (evaluation scale 0-5) (common ragweed [9]) | F: wild oat, herbicidal effect (evaluation scale 0-5) (wild oat [10]) | D: large crabgrass, herbicidal effect (evaluation scale 0-5) (large crabgrass [12]) | C: ducksalad, herbicidal effect (evaluation scale 0-5) (ducksalad [13]) | A: barnyardgrass, herbicidal effect (evaluation scale 0-5) (barnyardgrass [14]) | B: bulrush, herbicidal effect (evaluation scale 0-5) (bulrush [15]) | G: water foxtail, herbicidal effect (water foxtail [16]) | L: common lambsquater, herbicidal effect (common lambsquater [17]) | A: barnyardgrass, herbicidal effect (barnyardgrass [18]) | H: Italian ryegrass, herbicidal effect (Italian ryegrass [19]) | N: common chickweed, herbicidal effect (common chickweed [20]) | E: giant foxtail, herbicidal effect (giant foxtail [21]) | further results
CC1CC(=O)N(Cc2ccccc2N(C(=O)c2ccccc2)S(=O)(=O)C(F)(F)F)CO1 (centres unmarked) [II-6] | 5 (mortality of 90% or above (nearly complete death)) | 5 (mortality of 90% or above (nearly complete death)) | 5 (mortality of 90% or above (nearly complete death)) | 5 (mortality of 90% or above (nearly complete death)) | 3 (mortality of at least 40% and less than 70%) | 5 (mortality of 90% or above (nearly complete death)) | 3 (mortality of at least 40% and less than 70%) | 4 (mortality of at least 70% and less than 90%) | 4 (mortality of at least 70% and less than 90%) | 0 (mortality of less than 5% (almost ineffective)) | 4 (mortality of at least 70% and less than 90%) | 4 (mortality of at least 70% and less than 90%) | 5 (mortality of 90% or above (nearly complete death)) | 5 (mortality of 90% or above (nearly complete death)) | 5 (mortality of 90% or above (nearly complete death)) | 1 (mortality of at least 5% and less than 20%) | 5 (mortality of 90% or above (nearly complete death)) | 3 (mortality of at least 40% and less than 70%) | 1 (mortality of at least 5% and less than 20%) | 4 (mortality of at least 70% and less than 90%) | K: redroot pigweed, herbicidal effect (evaluation scale 0-5) (redroot pigweed [11]): 0 (mortality of less than 5% (almost ineffective)); a: transplanted rice, effect on crop (evaluation scale 0-5) (transplanted rice): 0 (mortality of less than 5% (almost ineffective)); O: beadstraw, herbicidal effect (beadstraw): 2 (mortality of at least 20% and less than 40%); J: common ragweed, herbicidal effect (common ragweed [22]): 5 (mortality of 90% or above (nearly complete death)); F: wild oat, herbicidal effect (wild oat [23]): 0 (mortality of less than 5% (almost ineffective)); K: redroot pigweed, herbicidal effect (redroot pigweed [24]): 0 (mortality of less than 5% (almost ineffective)); D: large crabgrass, herbicidal effect (large crabgrass [25]): 4 (mortality of at least 70% and less than 90%)
CC1(C)CC(=O)N(Cc2ccccc2N(C(=O)C2CC2)S(=O)(=O)C(F)(F)F)CO1 [II-20] | 5 (mortality of 90% or above (nearly complete death)) | 5 (mortality of 90% or above (nearly complete death)) | 5 (mortality of 90% or above (nearly complete death)) | 5 (mortality of 90% or above (nearly complete death)) | 0 (mortality of less than 5% (almost ineffective)) | 5 (mortality of 90% or above (nearly complete death)) | 5 (mortality of 90% or above (nearly complete death)) | 4 (mortality of at least 70% and less than 90%) | 4 (mortality of at least 70% and less than 90%) | 0 (mortality of less than 5% (almost ineffective)) | 4 (mortality of at least 70% and less than 90%) | 5 (mortality of 90% or above (nearly complete death)) | 5 (mortality of 90% or above (nearly complete death)) | 5 (mortality of 90% or above (nearly complete death)) | 5 (mortality of 90% or above (nearly complete death)) | 0 (mortality of less than 5% (almost ineffective)) | 5 (mortality of 90% or above (nearly complete death)) | 4 (mortality of at least 70% and less than 90%) | 3 (mortality of at least 40% and less than 70%) | 5 (mortality of 90% or above (nearly complete death)) | N: common chickweed, herbicidal effect (evaluation scale 0-5) (common chickweed [26]): 4 (mortality of at least 70% and less than 90%); K: redroot pigweed, herbicidal effect (evaluation scale 0-5) (redroot pigweed [11]): 0 (mortality of less than 5% (almost ineffective)); O: beadstraw, herbicidal effect (beadstraw): 4 (mortality of at least 70% and less than 90%); J: common ragweed, herbicidal effect (common ragweed [22]): 5 (mortality of 90% or above (nearly complete death)); F: wild oat, herbicidal effect (wild oat [23]): 0 (mortality of less than 5% (almost ineffective)); K: redroot pigweed, herbicidal effect (redroot pigweed [24]): 0 (mortality of less than 5% (almost ineffective)); D: large crabgrass, herbicidal effect (large crabgrass [25]): 5 (mortality of 90% or above (nearly complete death))
CCOC(=O)N(c1ccccc1CN1COC(C)(C)CC1=O)S(=O)(=O)C(F)(F)F [II-23, 6,6-dimethyl-3-[2-(N-ethoxycarbonyl-N-trifluoromethanesulfonyl)aminobenzyl]-1,3-oxazinan-4-one] | 5 (mortality of 90% or above (nearly complete death)) | 5 (mortality of 90% or above (nearly complete death)) | 5 (mortality of 90% or above (nearly complete death)) | 5 (mortality of 90% or above (nearly complete death)) | 2 (mortality of at least 20% and less than 40%) | 5 (mortality of 90% or above (nearly complete death)) | 4 (mortality of at least 70% and less than 90%) | 5 (mortality of 90% or above (nearly complete death)) | 5 (mortality of 90% or above (nearly complete death)) | 0 (mortality of less than 5% (almost ineffective)) | 5 (mortality of 90% or above (nearly complete death)) | 5 (mortality of 90% or above (nearly complete death)) | 5 (mortality of 90% or above (nearly complete death)) | 5 (mortality of 90% or above (nearly complete death)) | 5 (mortality of 90% or above (nearly complete death)) | 4 (mortality of at least 70% and less than 90%) | 5 (mortality of 90% or above (nearly complete death)) | 4 (mortality of at least 70% and less than 90%) | 4 (mortality of at least 70% and less than 90%) | 4 (mortality of at least 70% and less than 90%) | N: common chickweed, herbicidal effect (evaluation scale 0-5) (common chickweed [26]): 4 (mortality of at least 70% and less than 90%); a: transplanted rice, effect on crop (evaluation scale 0-5) (transplanted rice): 0 (mortality of less than 5% (almost ineffective)); O: beadstraw, herbicidal effect (beadstraw): 5 (mortality of 90% or above (nearly complete death)); J: common ragweed, herbicidal effect (common ragweed [22]): 5 (mortality of 90% or above (nearly complete death)); F: wild oat, herbicidal effect (wild oat [23]): 0 (mortality of less than 5% (almost ineffective)); D: large crabgrass, herbicidal effect (large crabgrass [25]): 5 (mortality of 90% or above (nearly complete death))
